Experimental data taken from patent US20100292185A1, “BETA-LACTAMASE INHIBITORS” (priority 2009, published 2010).
pIC50: −log10 of the molar value. Counter-ions that a name gives are not always drawn. Like-named read-outs stand apart in the source and are kept apart here.

Key:
SHV-5 β-lactamase = target: T1, SHV-5 β-lactamase (Klebsiella pneumoniae, UniProt P0A3M1); experiment: β-lactamase enzyme inhibition assay (nitrocefin substrate), SHV-5; assay type: biochemical
T1 construct: expressed as native untagged proteins; made in house; host or cells: E. coli BL21(DE3)
T1 sequence (P0A3M1 22-286): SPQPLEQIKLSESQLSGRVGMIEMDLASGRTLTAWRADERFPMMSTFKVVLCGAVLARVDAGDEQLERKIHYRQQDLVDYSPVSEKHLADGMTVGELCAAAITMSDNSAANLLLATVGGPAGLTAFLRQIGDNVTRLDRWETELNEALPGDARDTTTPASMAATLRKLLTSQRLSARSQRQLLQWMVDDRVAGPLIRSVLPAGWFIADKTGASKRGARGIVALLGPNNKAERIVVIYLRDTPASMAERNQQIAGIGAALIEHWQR
Experimental: (§1) Isolation of β-lactamases. For SHV-5, p99 AmpC, KPC-2 and CTX-M15 β-lactamases, E. coli BL21(DE3) bacterial cells carrying expression plasmids (expressed as native untagged proteins) for the individual β-lactamases were grown in 1 L of Superbroth (Teknova Inc. Hollister, Calif.) supplemented with 100 μg/ml kanamycin and 1×5052 (0.5% glycerol, 0.05% glucose and 0.2% α-lactose) at 35° C. for 18-20 hours. Cells were harvested by centrifugation (4,000×g, 4° C., 20 min), and resuspended in 50 ml of 10 mM HEPES pH 7.5 (1/20 of the initial volume). The cells were lysed by sonication (5 pulses of 45 seconds) at 45 W on ice. The lysates were clarified by centrifugation at 10,000×g for 40 minutes at 4° C. Samples were diluted 5-fold in 50 mM sodium acetate pH 5.0, stored overnight at 4° C., after which they were centrifuged at 10,000×g for 30 minutes to clarify, and filtered through 0.45 μm filters. The samples were loaded onto a 5 ml Capto S sepharose cation exchange column (GE Healthcare) pre-equilibrated with 50 mM sodium acetate pH 5.0. The column was washed with 5 column volumes of 50 mM sodium acetate pH 5.0 to wash out unbound protein and a linear gradient of NaCl (0 to 500 mM) was used to elute the protein (over 16 CV) from the column. Fractions were assayed for β-lactamase activity using Centa (Calbiochem, Gibbstown, N.J.) as a reporter β-lactamase substrate for activity in the isolated fractions. Active fractions were pooled, concentrated and further purified by gel filtration chromatography on a Superdex 75 prep grade gel filtration column (GE Healthcare, Piscataway, N.J.) pre-equilibrated in 50 mM Hepes pH 7.5, 150 mM NaCl. Active fractions were pooled concentrated, quantitated by BCA protein determination (Thermo Scientific, Rockford, Ill.), and frozen at −80° C. in 20% glycerol until use.
(§2) β-lactamase Inhibition. To determine the level of inhibition of β-lactamase enzymes, compounds were diluted in PBS at pH 7.0 to yield concentrations between 100 and 0.005 μM in microtiter plates. An equal volume of diluted enzyme stock was added, and the plates were incubated at 37° C. for 10 min. Nitrocefin solution was then dispensed as substrate into each well at a final concentration of 100 μM, and the plates were immediately read with the kinetic program at 486 nm for 10 min on the SPECTRAMAX® Plus^384 (high-throughput microplate spectrophotometer; Molecular Devices Corp., Sunnyvale, Calif.). Maximum rates of metabolism were then compared to those in control wells (without inhibitors), and percentages of enzyme inhibition were calculated for each concentration of inhibitor. The concentration of inhibitor needed to reduce the initial rate of hydrolysis of substrate by 50% (IC50) was calculated as the residual activity of β-lactamase at 486 nm using the SoftMax Pro 5.0 software (Molecular Devices Corp.).
(§3) Using the methodology described above, examples of the current invention were evaluated for their ability to inhibit β-lactamase enzymes. The results of these assays are summarized in Table 2 for representative enzymes across different subtypes (note SHV-5 and CTXM-15 exemplify different subclasses of Ambler Class A Extended Spectrum Beta Lactamases, KPC-2 exemplifies Class A carbapenemases, P99 represents chromosomal Class C AmpC, VIM-2 exemplifies subclass B1 of metallo-β-lactamases, and OXA-23 represents chromosome-encoded Class D oxacillin-hydrolyzing β-lactamases), NT=not tested.

[1] = tested on: K. pneumoniae expressing the Class A Extended Spectrum Beta-Lactamase (ESBL) CTX-M-15; experiment: In vitro antibacterial assay of β-lactamase inhibition (broth microdilution MIC), K. pneumoniae CTX-M-15; assay type: cell-based
Source text: (§4) To determine the ability of test compounds to potentiate the inhibition of the growth of bacterial strains producing beta-lactamase enzymes, classic cell based screening assays were employed. Five bacteria strains producing beta-lactamase enzymes were used: K. pneumoniae expressing the Class A Extended Spectrum Beta-Lactamase (ESBL) CTX-M-15, E. coli expressing the Class A ESBL SHV-5, E. cloacae expressing the Class C P99+, K. pneumoniae expressing the Class A carbapenemase KPC-2, and P. aeruginosa expressing the Class B metallo β-lactamase VIM-2. In order to evaluate the ability of test compounds to inhibit beta-lactamase activity, Applicants used a modification of the broth microdilution assay. The assay was conducted in Cation Adjusted Mueller Hinton Broth (CAMHB, BD # 212322, BD Diagnostic Systems, Sparks, Md.). Bacteria strains were grown for 3-5 hours in CAMBH broth. All five strains were grown in presence of 50 μg/mL ampicillin to ensure resistance is maintained. In the meantime, test compounds were diluted in DMSO to a 0.1 mg/mL stock. The compounds were added to a microtiter plate and were diluted in 2-fold serial dilutions in CAMHB in a final concentration range of 8 μg/mL to 0.015 μg/ml. […] Each of these compound plates are made in quadruplicate, one for each bacteria strain. In addition to the titration of test compounds the MICs of a panel of cephalosporins is also tested to ensure the strains are behaving consistently from test to test. Once the test compound and cephalosporin are added the plates can be inoculated. Inocula are conducted according to CLSI broth microdilution method. After inoculation the plates are incubated for 16-20 hours at 37° C. then the Minimal Inhibitory Concentration (MIC) of the test compound is determined visually.
(§5) Using the methodology described above, examples of the current invention were evaluated for their ability to inhibit the growth of β-lactamase producing bacteria in the presence of a β-lactam antibiotic.

KPC-2 β-lactamase = target: T2, KPC-2 β-lactamase (Klebsiella pneumoniae, UniProt Q9F663); experiment: β-lactamase enzyme inhibition assay (nitrocefin substrate), KPC-2; assay type: biochemical
T2 construct: expressed as native untagged proteins; made in house; host or cells: E. coli BL21(DE3)
T2 sequence (Q9F663 25-293 limits assumed): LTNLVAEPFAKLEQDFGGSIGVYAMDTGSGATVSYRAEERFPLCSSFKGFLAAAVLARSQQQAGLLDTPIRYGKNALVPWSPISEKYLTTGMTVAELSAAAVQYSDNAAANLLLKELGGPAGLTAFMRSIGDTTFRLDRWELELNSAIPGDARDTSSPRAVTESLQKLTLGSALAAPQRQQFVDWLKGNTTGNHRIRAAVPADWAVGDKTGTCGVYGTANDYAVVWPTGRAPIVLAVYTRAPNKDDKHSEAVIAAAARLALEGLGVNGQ
Experimental: as §1, §2, §3

[2] = tested on: K. pneumoniae expressing the Class A carbapenemase KPC-2; experiment: microbe, parasite or virus in culture; assay type: cell-based
Source text: as §4, §5

[3] = tested on: E. cloacae expressing the Class C P99+; experiment: In vitro antibacterial assay of β-lactamase inhibition (broth microdilution MIC), E. cloacae P99+; assay type: cell-based
Source text: as §4, §5

CTX-M15 β-lactamase = target: T3, CTX-M15 β-lactamase (Escherichia coli, UniProt Q9EXV5); experiment: β-lactamase enzyme inhibition assay (nitrocefin substrate), CTXM-15; assay type: biochemical
T3 construct: expressed as native untagged proteins; made in house; host or cells: E. coli BL21(DE3)
T3 sequence (Q9EXV5 entry or part of it): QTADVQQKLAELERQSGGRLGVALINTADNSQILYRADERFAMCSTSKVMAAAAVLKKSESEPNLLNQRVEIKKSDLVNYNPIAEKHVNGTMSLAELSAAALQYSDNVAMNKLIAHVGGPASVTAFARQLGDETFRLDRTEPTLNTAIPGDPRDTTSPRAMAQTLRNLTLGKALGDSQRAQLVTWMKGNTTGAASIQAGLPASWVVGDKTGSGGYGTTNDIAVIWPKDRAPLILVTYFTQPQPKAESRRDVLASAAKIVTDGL
Experimental: as §1, §2, §3

[4] = tested on: P. aeruginosa expressing the Class B metallo β-lactamase VIM-2; experiment: In vitro antibacterial assay of β-lactamase inhibition (broth microdilution MIC), P. aeruginosa VIM-2; assay type: cell-based; conditions: in presence of Ceftazidime 16 μg/mL (Examples 1-56)
Source text: as §4, §5

p99 AmpC β-lactamase = target: T4, p99 AmpC β-lactamase (Enterobacter cloacae, UniProt P05364); experiment: β-lactamase enzyme inhibition assay (nitrocefin substrate), P99 AmpC; assay type: biochemical
T4 construct: expressed as native untagged proteins; made in house; host or cells: E. coli BL21(DE3)
T4 sequence (P05364 21-381): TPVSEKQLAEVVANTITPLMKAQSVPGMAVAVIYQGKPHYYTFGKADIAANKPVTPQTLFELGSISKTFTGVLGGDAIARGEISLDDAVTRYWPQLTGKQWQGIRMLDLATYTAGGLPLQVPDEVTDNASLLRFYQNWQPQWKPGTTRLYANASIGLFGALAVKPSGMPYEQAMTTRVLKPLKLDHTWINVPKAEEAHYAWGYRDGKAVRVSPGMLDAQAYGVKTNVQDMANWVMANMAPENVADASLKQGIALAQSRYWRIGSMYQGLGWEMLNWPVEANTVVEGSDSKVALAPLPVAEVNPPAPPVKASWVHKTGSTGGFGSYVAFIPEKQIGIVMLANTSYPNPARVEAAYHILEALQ
Experimental: as §1, §2, §3

[5] = tested on: E. coli expressing the Class A ESBL SHV-5; experiment: In vitro antibacterial assay of β-lactamase inhibition (broth microdilution MIC), E. coli SHV-5; assay type: cell-based
Source text: as §4, §5

OXA-23 β-lactamase = target: T5, OXA-23 β-lactamase (Acinetobacter baumannii, UniProt Q9L4P2); experiment: β-lactamase enzyme inhibition assay (nitrocefin substrate), OXA-23 crude extract; assay type: biochemical; conditions: nitrocefin 100 μM, 37° C., PBS pH 7.0; read-out: OXA-23 IC50
T5 construct: crude β-lactamase extracts were prepared from 20 ml overnight cultures; endogenous in cells; host or cells: Acinetobacter baumannii cells containing OXA-23 (crude freeze-thaw extract)
T5 sequence (Q9L4P2 18-273): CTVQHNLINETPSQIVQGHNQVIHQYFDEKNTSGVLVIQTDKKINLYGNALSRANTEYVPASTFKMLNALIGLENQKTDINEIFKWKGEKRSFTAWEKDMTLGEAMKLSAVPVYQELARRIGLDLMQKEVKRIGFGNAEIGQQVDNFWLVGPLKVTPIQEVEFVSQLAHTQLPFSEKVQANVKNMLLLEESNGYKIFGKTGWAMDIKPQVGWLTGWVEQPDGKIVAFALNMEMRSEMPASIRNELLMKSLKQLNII
Experimental: For OXA-23 β-lactamase, crude β-lactamase extracts were prepared from 20 ml overnight cultures with shaking. Acenitobacter baumanni cells containing OXA-23 were further diluted 10-fold and grown to mid-log phase (OD at 600 nm, 0.5-0.8) in Mueller-Hinton II (MH-II) broth at 37° C. The cells were pelleted at 5000 g, washed and resuspended in 2 mL PBS pH 7.0. The β-lactamases were extracted by four cycles of freezing and thawing followed by centrifugation. β-lactamase activity in the extracts was measured with the chromogenic cephalosporin nitrocefin. The amount of protein in each β-lactamase preparation was determined by the bicinchoninic acid (BCA) assay.
as §2

[6] = in presence of Ceftazidime 8 μg/ml (Examples 1-56)
[7] = nitrocefin 100 μM, 37° C., PBS pH 7.0, read-out: P99 AmpC IC50
[8] = in presence of Piperacillin 16 μg/ml (Examples 57-65)

Structure (SMILES)	pIC50 (SHV-5 β-lactamase)	MIC of example compound, K. pneumoniae CTX-M-15 [1, 6]	pIC50 (KPC-2 β-lactamase)	MIC of example compound, K. pneumoniae KPC-2 [2, 6]	MIC of example compound, E. cloacae P99+ [3, 6]	pIC50 (CTX-M15 β-lactamase)	MIC of example compound, P. aeruginosa VIM-2 [4]	pIC50 (p99 AmpC β-lactamase; [7])	MIC of example compound, E. coli SHV-5 [5, 6]	pIC50 (p99 AmpC β-lactamase)	MIC of example compound, K. pneumoniae CTX-M-15 [1, 8]	pIC50 (OXA-23 β-lactamase)	MIC of example compound, K. pneumoniae KPC-2 [2, 8]	MIC of example compound, E. cloacae P99+ [3, 8]	MIC of example compound, E. coli SHV-5 [5, 8]
CC(C)(O/N=C(\C(=O)N[C@@H](Cc1cccc(C(=O)O)c1O)B(O)O)c1csc(NC(=O)CN)n1)C(=O)O.Cl [Example 50, 3-{2(R)-[2-[2-(2-amino-acetylamino)-thiazol-4-yl]-2(Z)-(1-carboxy-1-methyl-ethoxyimino)-acetylamino]-2-borono-ethyl}-2-hydroxy-benzoic acid hydrochloride]	7.62	>8 µg/mL	6.80	>8 µg/mL	>8 µg/mL	7.47	>8 µg/mL	7.64	>8 µg/mL	–	–	–	–	–	–
O=C(N[C@@H](Cc1cccc(C(=O)O)c1O)B(O)O)c1cccc(CNCCCO)c1 [Example 25, (1R)-[3-{(3-hydroxy-propylamino)-methyl}-benzoylamino]-(3-carboxy-2hydroxy)benzyl-methylboronic acid formate]	6.24	1 µg/mL	7.70	0.03 µg/mL	0.5 µg/mL	8.52	>8 µg/mL	9.05	8 µg/mL	–	–	–	–	–	–
CO/N=C(\C(=O)N[C@@H](Cc1cccc(C(=O)O)c1O)B(O)O)c1csc(NC(=O)[C@@H](N)CCCCN)n1 [Example 52, 3-(2(R)-{2-[2-(2(S),6-diamino-hexanoylamino)-thiazol-4-yl]-2(Z)-methoxyimino-acetylamino}-2-borono-ethyl)-2-hydroxy-benzoic acid hydrochloride]	7.59	>8 µg/mL	7.05	2 µg/mL	>8 µg/mL	7.26	>8 µg/mL	–	>8 µg/mL	8.10	–	–	–	–	–
O=C(Cc1ccc(CNc2ccccn2)cc1)N[C@@H](Cc1cccc(C(=O)O)c1O)B(O)O [Example 57, (1R)-1-{2-[4-(pyridin-2-ylaminomethyl)-phenyl]-acetylamino}-1-[(3-carboxy-2hydroxy)benzyl]-methylboronic acid formate]	8.70	–	7.89	–	–	8.40	–	8.52	–	–	>8 µg/mL	6.81	4 µg/mL	4 µg/mL	1 µg/mL
CC(=O)N(CCN)Cc1cccc(C(=O)N[C@@H](Cc2cccc(C(=O)O)c2O)B(O)O)c1 [Example 24, (1R)-(3-{[acetyl-(2-amino-ethyl)-amino]-methyl}-benzoylamino)-(3-carboxy-2-hydroxy)benzyl-methylboronic acid formate]	6.46	1 µg/mL	7.74	0.12 µg/mL	1 µg/mL	8.40	>8 µg/mL	8.70	8 µg/mL	–	–	–	–	–	–
CO/N=C(\C(=O)N[C@@H](Cc1cccc(C(=O)O)c1O)B(O)O)c1csc(NC(=O)CN)n1.Cl [Example 51, 3-(2(R)-{2-[2-(2-amino-acetylamino)-thiazol-4-yl]-2(Z)-methoxyimino-acetylamino}-2-borono-ethyl)-2-hydroxy-benzoic acid hydrochloride]	7.82	>8 µg/mL	7.24	>8 µg/mL	>8 µg/mL	7.40	>8 µg/mL	7.77	>8 µg/mL	–	–	–	–	–	–
